The record followed here is patent US20260266834A1, “Compositions And Methods For Detecting Proteins In Protein Corona” (Board of Trustees of Michigan State University, priority 2023, published 2026).

The assay concerns the target T1, albumin (Homo sapiens, UniProt P02768).
T1 construct: commercial pooled healthy human plasma diluted to 55% by PBS; from tissue; host or cells: commercial pooled healthy human plasma
Kind of assay: Abundance of albumin in protein corona proteome by LC-MS/MS. Particulars: PtdChos 1000 μg/ml; plasma alone over 81%. As for the experimental part:
For protein corona formation in the presence of small molecules, commercial pooled healthy human plasma diluted to 55% by PBS was first incubated with the individual small molecules or a combination of small molecules at varying concentrations (i.e., 10, 100, and 1,000 μg/ml) for 1 hour at 37° C., allowing the small molecules to interact with the biological matrix. The small molecule combinations included each of the four small molecules (glucose, triacylglycerols, diacylglycerols, and PtdChos for combination 1; PE, PtdIns, IMP, and vitamin B complex for combination 2) at the given concentration. […]
Initial processing: NPs coated with protein corona were first washed with PBS and then resuspended in 30 μl of PBS, enriched with 15 mM phosphate (pH 7.4). The bound total protein content was estimated to be around 1 μg per sample, determined via a Micro BCA™ assay (Thermo Scientific™). […]
LC-MS/MS Analysis: Dried samples were reconstituted with 1 μg of peptides in 25 μl of liquid chromatography (LC) loading buffer (3% acetonitrile (ACN), 0.1% trifluoroacetic acid (TFA)) and analyzed using LC-MS/MS. A 60-minute gradient was applied in the label-free quantification (LFQ) mode, with 5 μl aliquots injected in triplicate. Control samples (55% human plasma) were prepared with 8 μg of peptides in 200 μl of loading buffer and analyzed similarly. […]

T1 sequence (P02768 25-609): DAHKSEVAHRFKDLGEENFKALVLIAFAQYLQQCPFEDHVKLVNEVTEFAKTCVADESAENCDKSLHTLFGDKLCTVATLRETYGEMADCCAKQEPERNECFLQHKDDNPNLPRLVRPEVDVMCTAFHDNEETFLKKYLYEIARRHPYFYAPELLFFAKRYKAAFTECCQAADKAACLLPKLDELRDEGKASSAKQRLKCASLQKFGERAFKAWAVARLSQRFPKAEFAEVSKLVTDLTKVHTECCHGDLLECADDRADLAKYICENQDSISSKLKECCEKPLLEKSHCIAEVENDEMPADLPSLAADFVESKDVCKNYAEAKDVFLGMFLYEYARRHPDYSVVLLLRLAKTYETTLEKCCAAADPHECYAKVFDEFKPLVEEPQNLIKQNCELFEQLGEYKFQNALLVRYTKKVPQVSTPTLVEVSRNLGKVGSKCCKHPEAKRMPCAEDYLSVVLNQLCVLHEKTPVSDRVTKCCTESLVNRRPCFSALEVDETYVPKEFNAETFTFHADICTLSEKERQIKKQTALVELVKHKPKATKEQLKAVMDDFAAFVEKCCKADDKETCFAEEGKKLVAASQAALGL

Regarding phosphatidylcholine [PtdChos], the “albumin representation (share of proteins)” value is “around 17%”.
